Laboratory results from patent publication US20250188077A1, “CRYSTAL FORM OF 1H-PYRROLO[2,3-C]PYRIDINE COMPOUND AND PREPARATION METHOD THEREFOR” (JUMBO DRUG BANK CO., LTD., priority 2022, published 2025).
Where two headings read alike, the source gives them in different places.

What was measured:
BCR-FMS-BaF3 cells = test: CellTiter-Glo luminescent cell viability / cell proliferation assay; assay type: cell-based; settings: for IC50: 72 h, BCR-FMS-BaF3, 3 days incubation
Text: Luminescent Cell Viability Assay (CellTiter-Glo® methold) from Promega was used for cell proliferation detection. CellTiter-Glo® Luminescent Cell Viability Assay (CellTiter-Glo® luminescent cell viability detection kit) was a homogeneous rapid detection method for detecting the viability of living cells in culture by quantitative determination of ATP. ATP was an indicator of the metabolism of living cells. Cell lysis and the resulting light signal were proportional to the amount of present ATP, and the amount of ATP is directly proportional to the number of living cells in the culture. The higher the fluorescence reading indicated the higher ATP content in the cell and also the higher the cell viability. Therefore, the inhibition degree of compound on cell proliferation can be monitored by fluorescence value. 1) The compound was diluted 2 mM with 100% DMSO, that is, 5 μL of 10 mM compound storage solution was taken and put into the first column of 96-well compound plate, then 20 μL of 100% DMSO were added and mixed well; 2) 20 μL of 100% DMSO was added to the second column to the tenth column of 96-well compound plate; 3) 5 μL of compound was taken from the first column to the second column and mixed well, and then 5 μL of compound was taken from the second column to the third column and mixed well. The above steps were repeated to the ninth column to complete the gradient dilution of the compound; 4) Preparation of compound working solution: 2 μL of compound per well from the second column of the compound plate was taken to a new 96 well compound plate, and 78 μL of cell culture medium per well was added; 2 μL of 100% DMSO from the negative control well was taken and 78 μL of cell culture medium was added; and 5) The compound concentration was the final concentration, in which the blank control well was the culture medium well without cells, and the negative control was 0.5% DMSO. 1) The BCR-FMS-BaF3 cell suspension was collected and centrifuged at 1000 rpm (revolutions per minute) for 5 minutes. The supernatant was removed, cells were resuspended with preheated medium and counted. After counting, the cell suspension was diluted with cell culture medium to the required density. Each well was inoculated with 80 μL cell suspension into 96 well cell culture plate. 2) On the day of the experiment, 20 μL of compound working solution was added to the cell plate and incubated for 3 days at 37° C. in a 5% CO2 incubator. [table] 3) After the incubation is completed, 20 μL of CTG detection reagent was added to each well of the cell plate, and incubated at 25° C. for 10 minutes. After the incubation is completed, EnVision was used for luminescence signal detection. […]

[1] = Solid stability test (XRPD crystal form after storage); assay type: physicochemical
Text: The samples placed at high temperature and humidity were sampled for XRPD testing on the 10th and 30th day; The samples exposed to light were put into a clean surface dish, laid into a thin layer, covered with a quartz glass cover, and sampled for XRPD testing on the 5th and 10th days; For the long-term test and accelerated test (shading), each sample were put into a double-layer LDPE bag, each layer of LDPE bag was respectively buckled and sealed, and then the LDPE bag was put into an aluminum foil bag with a package of desiccant and heat sealed. The samples were respectively placed at 25° C./60% RH, 30° C./65% RH and 40° C./75% RH for exploration, the test results were compared with the initial test results of 0 day and the test results were shown in Table 7 below.

[2] = Hygroscopicity study by dynamic vapor sorption (DVS); assay type: physicochemical; settings: 80% RH/25° C.
Protocol: Instrument model: SMS DVS Intrinsic dynamic vapor sorption instrument
Test conditions: The sample (10 mg) was taken and placed in a DVS sample plate for testing.
Detailed DVS parameters were as follows:
Drying: 25° C., 0% RH drying for 2 hours
Range of Rh (%) test step: 0%-95%-0% RH
SMS DVS intrinsic dynamic vapor adsorption instrument
A sample (10 mg) was taken and placed in a DVS sample plate for testing.

[3] = Solid stability test (XRPD crystal form after storage); assay type: physicochemical; settings: 40° C./75% RH(open)

IC50 (BCR-FMS-BaF3 cells; mean of N = 1 and N = 2, read-out: IC50 (nM) Mean value ± SD): 2.46 ± 0.008 nM
IC50 (BCR-FMS-BaF3 cells; replicate N = 1, read-out: IC50 (nM) N = 1): 2.46 nM
IC50 (BCR-FMS-BaF3 cells; replicate N = 2, read-out: IC50 (nM) N = 2): 2.47 nM
Crystal form (XRPD) ([1]; 0 days (initial)): crystal form B
Crystal form (XRPD) ([1]; 25° C./60% RH, 3 M): crystal form B
Crystal form (XRPD) ([1]; 25° C./60% RH, 6 M): crystal form B
Crystal form (XRPD) ([1]; 25° C./60% RH, 24 M): crystal form B
Crystal form (XRPD) ([1]; 30° C./65% RH, 1 M): crystal form B
Crystal form (XRPD) ([1]; 30° C./65% RH, 3 M): crystal form B
Crystal form (XRPD) ([1]; 30° C./65% RH, 6 M): crystal form B
Crystal form (XRPD) ([1]; high humidity (25° C./relative humidity 92.5%, open), 10 days): crystal form B
Crystal form (XRPD) ([1]; high humidity (25° C./relative humidity 92.5%, open), 30 days): crystal form B
Crystal form (XRPD) ([1]; high temperature (60° C., open), 10 days): crystal form B
Crystal form (XRPD) ([1]; high temperature (60° C., open), 30 days): crystal form B
Solid stability (conclusion) ([1]; influencing factors, light, acceleration and long-term experimental conditions): good stability
Crystal form (XRPD) ([1]; strong light (5000 lx and UV intensity 90 w/cm^2, open), 5 days): crystal form B
Crystal form (XRPD) ([1]; strong light (5000 lx and UV intensity 90 w/cm^2, open), 10 days): crystal form B
Classification of hygroscopicity [2]: slight hygroscopicity
ΔW (hygroscopic weight gain) ([2]; DVS): 0.28%
Crystal form (XRPD) ([3]; 1 M): crystal form B
Crystal form (XRPD) ([3]; 3 M): crystal form B
Crystal form (XRPD) ([3]; 6 M): crystal form B
Structure (SMILES): CNC(=O)c1nccc2c(-c3cnc(Nc4ccc(OC5CC5)nc4)cc3C)c[nH]c12.Cl
Inhibition of proliferation of BCR-FMS-BaF3 cells (conclusion in words) (BCR-FMS-BaF3 cells; BCR-FMS-BaF3 cells): significantly inhibit the proliferation
